Test system: canine androgen receptor
Details: DHT 10^−7 M, 24 hr, control A293S cells lacking the canine AR
Excerpt: Control plates were transfected with all plasmids except canine AR. […] Luciferase activity was normalized for transfection efficiency using β-galactosidase activity.
Control plates were transfected with all the same plasmids except canine AR. […] Cells were harvested 24 hr after compound addition and analyzed for luciferase activity (Luciferase Assay System, Promega, Madison, Wis.) and β-galactosidase activity (Galacto-Star, Tropix, Inc., Bedford, Mass.). Data is expressed as fold induction of luciferase activity as compared to vehicle, following normalization for transfection efficiency using β-galactosidase activity.

C[C@]12CCC(=O)C[C@@H]1CC[C@@H]1[C@@H]2CC[C@]2(C)[C@@H](O)CC[C@@H]12 [DHT, 5α-androstan-17β-ol-3-one]
induction of luciferase activity compared to vehicle: no induction

From patent US20020161194A1, “Cannine androgen receptor” (priority 2000, published 2002)
